Assays:
Chikungunya virus = test: Antiviral activity against Chikungunya virus Indian Ocean 889 infected in African green monkey Vero cells assessed as inhibition of virus-induced cytopathic effect after 7 days by MTS method; assay type: functional, organism-based; details: Indian Ocean 889, Vero, 168 h
[1] = Selectivity index, ratio of CC50 for African green monkey Vero cells to EC50 for Chikungunya virus Indian Ocean 889 infected in African green monkey Vero cells; assay type: toxicity; details: read-out: Ratio CC50/EC50

Work on `C/C1=C\[C@@H]2[C@H](CC[C@]3(C)O[C@H]3C3=C(C1=O)[C@@H](O)[C@H](C)C3=O)C2(C)C` yielded an EC50 (Chikungunya virus) of 14 µM and a selectivity ratio [1] of 1.92.
